Read-outs that look alike come from different tables or passages of the source.

Assay [1] relates to Enterococcus faecalis (ATCC 19433). The experiment in a line: Bacterial studies, blue light 9.5 J/cm^2 or dark, drop plate CFU (Examples 4-6). The assay is classed as cell-based. As for the experimental part:
(§1) Briefly, the components were mixed and dissolved in warm water (˜50° C.) before evaporation of the solvent at 45° C. for 15 min with a rotatory evaporator. The resulting NADES were transferred to polypropylene tubes with a tight cap. The individual components of each NADES were also prepared as solutions in MilliQ water in a concentration similar to the concentration in the final NADES preparation. All samples were diluted 1:1 with bacterial suspension (OD600 0.03) or 1:50, 1:100 and 1:200 with phosphate buffered saline (PBS, pH 7.4, Lonza, Verviers, Belgium) prior to dilution 1:1 with the bacterial suspension immediately before the bacterial studies.
(§2) The overnight cultures were centrifuged (4000 g, 22° C., 10 min), the medium replaced and diluted with PBS to OD600 0.03. The bacterial suspensions were mixed 1:1 with the samples described in the previous paragraph. A volume of 200 μl from each sample was transferred to the first and seventh well on each row on a 96 well plate (Nunclon sterile 96 well plate with lid, Thermo Fischer Scientific, Waltham, Mass.). Two identical plates were made each time, one for light treatment and one for dark controls. The plates containing E. faecalis or S. aureus samples were incubated for 10 min (37° C.), irradiated with blue light for 10 min (corresponding to 9.5 J/cm^2±10%) and incubated again for 10 min (37° C.). The plates containing E. coli samples were incubated for 30 min (37° C.), irradiated with blue light for 30 min (corresponding to 27 J/cm^2±10%) and incubated again for 30 min (37° C.). The plates containing the dark controls were treated similarly, but covered with aluminium foil during the irradiation period and placed beside the irradiation chamber. […] After treatment, the samples were diluted according to the 6×6 drop plate procedure, modified to 4×4 (each treatment was performed with four parallels). A volume of 15 μl from each dilution was then plated onto TSB agar plates, left to dry for a few minutes and incubated overnight (37° C.). Viable colony forming units (CFU)/ml were calculated by counting the CFUs, multiplying with the dilution factor and dividing by the application volume.
(§3) Briefly, the components of each NADES (see Table 7) were mixed and dissolved in a round flask with 50 ml of warm water (˜50° C.) before evaporation of the solvent at 45° C. for 15 min with a rotatory evaporator. TMAP (Frontier Scientific, Inc., Logan, Utah, USA) was then added to each NADES. […] The final concentration of TMAP was 1 nM. Samples of TMAP were also prepared in purified water (MilliQ) to be 1 nM after dilution 1:200 with PBS (pH 7.4, Lonza, Verviers, Belgium) or with a 6.8 mM citric acid solution (pH ˜4) and bacterial suspension.
(§4) TCPP (Frontier Scientific, Inc., Logan, Utah, USA) was added to each NADES. […] The final TCPP concentrations were 0.5 nM-1 μM. Samples of TCPP were also prepared in ethanol to be 1 nM-1 μM after dilution 1:200 with PBS (pH 7.4, Lonza, Verviers, Belgium) or with a 6.8 mM citric acid solution (pH ˜4) and bacterial suspension.

The test system of assay [2] is Staphylococcus aureus (strain Newman). Described as above. The format is cell-based. As for the experimental part:
as §1, §2, §3, §4

Assay [3] has as its system Escherichia coli (ATCC 25922). The experiment in a line: Bacterial studies, blue light 27 J/cm^2 or dark, drop plate CFU (Examples 4-6). The assay is classed as cell-based. Conditions: for surviving colony forming units per ml / surviving colony forming units: E. coli. As for the experimental part:
as §1, §2, §3, §4

The subject of assay [4] is S. epidermidis (ATCC 35984). The experiment in a line: Phototoxicity studies, blue light 9.5 J/cm^2 or dark (Example 7). The assay is classed as cell-based, Staphylococcus epidermidis. How it is done:
as §2
(§5) The concentrations were adjusted give a final concentration of 1-20 nM porphyrin in the bacterial suspension after dilution with PBS (see Table 9). Aqueous solutions of 2.7 M citric acid, 2.3 M xylitol, 2.5 M sucrose, 5 M choline chloride and pure NADES, respectively, were used to investigate the toxicity of the individual compounds and NADES without a photosensitiser. The concentrations of the excipients were the same as in the respective NADES after evaporation of unbound water. The solutions were diluted totally 1:200 (or more) in the bacterial studies.
(§6) The treatments were performed with four parallels.
(§7) Gram-positive bacteria are generally considered to be more susceptible to photodynamic therapy than Gram-negative bacteria. Therefore, S. epidermidis was incubated for 10 min (37° C.), irradiated with blue light for 10 min (9.5 J/cm^2) and incubated again for 10 min while K. pneumoniae and P. aeruginosa were incubated for 30 min (37° C.), irradiated with blue light for 30 min (27 J/cm^2) and incubated again for 30 min.

For assay [5], the system named is C. albicans (ATCC CRM-10231). The experiment in a line: Antifungal toxicity studies, blue light 27 J/cm^2 or dark (Example 8). The assay is classed as cell-based, Candida albicans. As for the experimental part:
Briefly, the components of each NADES (see Table 13) were mixed and dissolved in a round flask with 50 ml of warm water ( 50° C.) before evaporation of the solvent at 45° C. for 15 min with a rotatory evaporator. The pure […] 35 and NADES 39 were mixed undiluted or after dilution 1:50 with phosphate buffered saline (PBS, Lonza, Verviers, Belgium) with the yeast suspension (1:1) in the toxicity studies. […] The concentrations of the excipients were the same as in the respective NADES after evaporation of unbound water. The solutions were diluted totally 1:1 or 1:100 with PBS and yeast suspension in the toxicity studies. […] The overnight cultures were centrifuged (4000 g, 22° C., 10 min), the medium replaced and diluted with PBS to OD600 0.1.

For assay [6], the system named is K. pneumoniae (ATCC 31844). The experiment in a line: Phototoxicity studies, blue light 27 J/cm^2 or dark (Example 7). The assay is classed as cell-based, Klebsiella pneumoniae. Conditions: ±SD, n = 4; for % survival (27 J/cm^2): Dilution 1:200, blue light; for % survival (dark): Dilution 1:200, no irradiation. How it is done:
as §2, §5, §6, §7

The test system of assay [7] is P. aeruginosa (ATCC 9027). The assay is described as above. Conditions: for % survival (27 J/cm^2): Dilution 1:200, blue light; for % survival (27 J/cm^2) / % survival (dark): ±SD, n = 4; for % survival (dark): Dilution 1:200, no irradiation. The assay is classed as cell-based, Pseudomonas aeruginosa. How it is done:
as §2, §5, §6, §7

Setting [8] is: Dilution 1:200, blue light, ±SD, n = 4.
Where [9] appears, read: Dilution 1:200, no irradiation, ±SD, n = 4.
[10] abbreviates: 2.1 M fructose, […] xylitol, […] sucrose, 5 M choline chloride diluted 1:1 or 1:100, dark or light, p>0.05.
The mark [11] stands for this setting: 1 nM TMAP in the citric acid solution, light.
The mark [12] stands for this setting: 1 nM TMAP in the diluted NADES 14, light.

Take `O=C(O)CC(O)C(=O)O` (racemic) [Malic acid, DL-malic acid]: the “photoinactivation of E. faecalis” value in assay [1] (dilution 1:1 and 1:100 with PBS, blue light) is recorded as “complete photoinactivation”. Moreover, the “toxicity / eradication of S. aureus” value in assay [2] (dilution 1:1 with bacterial suspension) is on record as “toxic”. Moreover, in assay [2] (dilution 1:100), the “toxicity to S. aureus” value is listed as “not toxic”. Further, the “toxicity to E. coli” value in assay [3] (2.1 M solution, 1:1 dilution and 1:100 dilution) is “highly toxic”.
As for `C[N+](C)(C)CCO.[Cl-]` [Choline chloride], the “toxicity of individual NADES component to E. faecalis” value in assay [1] is reported as “not toxic”. For the same molecule, the “toxicity of NADES 26 components to E. coli” value in assay [3] is recorded as “non-toxic”. Besides, in assay [4], the “% survival (9.5 J/cm^2)” value came out at 124 ± 7% and the “% survival (dark)” value was found to be 104 ± 12%. Moreover, in assay [5], the “reduction in viable C. albicans” value was “No significant reduction”.
In the case of `O=C(O)/C=C\C(=O)O` [Maleic acid], the “eradication of E. faecalis” value in assay [1] (dilutions 1:1 to 1:400 with PBS (maleic acid 3.1 M before dilution)) is “complete eradication”. Also, the “toxicity to S. aureus” value in assay [2] (dilution 1:400) was “no longer toxic”. The “eradication of S. aureus” value in assay [2] (dilution ratios 1:1 up to 1:200, total treatment 30 min) is on record as “complete eradication”. Moreover, the “toxicity to E. coli” value in assay [3] (3.1 M solution, even at dilution 1:400) is “highly toxic”.
Take `OC[C@H]1O[C@@](CO)(O[C@H]2O[C@H](CO)[C@@H](O)[C@H](O)[C@H]2O)[C@@H](O)[C@@H]1O` [Sucrose]: in assay [4] (setting [8]), the “% survival (9.5 J/cm^2)” value is 134 ± 14%. Further, the figures for the “% survival (dark)” value in assay [4] (setting [9]), in assay [6] and in assay [7] were 113 ± 5%, 124 ± 9% and 204 ± 22%, respectively. Also, the figures for the “% survival (27 J/cm^2)” value in assay [6] and in assay [7] were 84 ± 18% and 98 ± 19%, respectively. Further, the “reduction in viable C. albicans” value in assay [5] (setting [10]) was “No significant reduction”.
Turning to `OC[C@@H](O)[C@H](O)[C@@H](O)CO` [Xylitol], the “toxicity of NADES 26 components to E. coli” value in assay [3] (choline chloride 5 M, xylitol […]) was “non-toxic”. Moreover, the “% survival (9.5 J/cm^2)” value in assay [4] (setting [8]) is 118 ± 12%. In addition, the “% survival (dark)” value in assay [4] (setting [9]) was determined as 98 ± 10%; in assay [6], 72 ± 19%; in assay [7] it was 140 ± 19%. Besides, the “% survival (27 J/cm^2)” value in assay [6] came to 74 ± 17%; in assay [7], 143 ± 17%. Moreover, the “toxicity to P. aeruginosa” value in assay [7] (individual components of NADES 35, dilution 1:800) was “not toxic at all”. In assay [5] (setting [10]), the “reduction in viable C. albicans” value was “No significant reduction”.
`O=C(CO)[C@@H](O)[C@H](O)[C@H](O)CO` [fructose, D-(−)-fructose]: the “toxicity of individual NADES component to E. faecalis” value in assay [1] was “not toxic”. In addition, the “reduction in viable C. albicans” value in assay [5] (setting [10]) is given as “No significant reduction”.
For tetra-(4-carboxyphenyl)-porphine [TCPP], the “eradication of E. faecalis after photodynamic treatment” value in assay [1] (1 nM TCPP in acidic NADES 3), in assay [1] (1 nM TCPP in acidic NADES 14), in assay [1] (1 nM TCPP in acidic NADES 40) and in assay [1] (1 nM TCPP in citric acid solution) was “almost complete eradication” each time. Further, the “phototoxicity to E. faecalis” value in assay [1] (1 nM TCPP in pure PBS) is listed as “not very phototoxic”. In addition, the “eradication of E. faecalis after light treatment” value in assay [1] (1 μM TCPP in neutral NADES 26) was “complete eradication”. Moreover, the “surviving colony forming units” value in assay [1] (1 μM TCPP in pure PBS, light, E. faecalis) is recorded as “approximately 300 colony forming units”. Further, the “viable S. aureus after treatment” value in assay [2] (1 nM TCPP in NADES 3, light) is recorded as “no viable bacteria detected”. In assay [2] (1 nM TCPP in pure PBS), the “phototoxicity to S. aureus” value was “killed half of the viable bacteria”. For the same molecule, the “photoinactivation of S. aureus” value in assay [2] (TCPP up to 1 μM in PBS) and in assay [2] (TCPP up to 1 μM in pH-neutral NADES 26) was “did not result in complete photoinactivation” throughout. Besides, the “phototoxicity to E. coli” value in assay [3] (1 nM TCPP) and in assay [3] (40 nM TCPP in pure PBS) was “not phototoxic” in each case. Also, the “photoinactivation of E. coli” value in assay [3] (0.6 μM TCPP in NADES 40) was “complete photoinactivation”. In addition, in assay [3] (0.6 μM TCPP in citric acid solution, light), the “surviving colony forming units per ml” value is reported as 20 000 colony forming units per ml.
Take “tetra-(4-trimethylanilinum)-porphine tetrachloride [TMAP]”: in assay [1] (1 nM TMAP in NADES 14 (final dilution 1:400), E. faecalis), the “increase of phototoxicity compared to the citric acid solution” value is reported as 35 times. Besides, the “viable E. coli after photodynamic treatment” value in assay [3] (1 nM TMAP in NADES 35, dilution 1:800 with PBS) is reported as “no viable”. Moreover, the “phototoxicity to E. coli” value in assay [3] (1 nM TMAP in PBS, p>0.05) is “not enough to make this porphyrin significantly phototoxic”; in assay [3] (1 nM TMAP in neutral NADES 26 (1:200), p>0.05), “not enough to make this porphyrin significantly phototoxic”; in assay [3] (1 nM TMAP in neutral NADES 39 (1:100), p>0.05), “not enough to make this porphyrin significantly phototoxic”. Besides, the “surviving colony forming units” value in assay [3] (setting [11]) and in assay [3] (setting [12]) was 0.2% in each case. Further, the “surviving colony forming units per ml” value in assay [3] (setting [11]) and in assay [3] (setting [12]) was 10 000 colony forming units per ml each time. Also, the “photoinactivation of S. epidermidis” value in assay [4] is “did not result in complete photoinactivation”. For the same molecule, in assay [7] (1 nM or 5 nM TMAP in PBS), the “phototoxicity to P. aeruginosa” value is on record as “not phototoxic”. Moreover, in assay [5], the “toxicity to C. albicans” value is reported as “not toxic”.

The values above are taken from US10111842B2, “Eutectic solvents and uses thereof” (UNIVERSITY OF OSLO, priority 2014, dated 2018).
